Assay results as given in patent publication US20040062800A1, “Sustained release pharmaceutical dosage forms with minimized ph dependent dissolution profiles” (priority 2000, published 2004).
Counter-ions that a name gives are not always drawn.

Test: physchem
Format: physicochemical
Details: 25 °C
Excerpt: Below pH 3, the solubility increased as the pH decreased which is consistent with formation of a more soluble protonated form. […] Above pH 4, the solubility was independent of pH and remained constant (ca. 1.2 mcg/mL) up to pH 8. Above pH 8, the solubility increased with increasing pH which is due to the ionization of the quinazoline moiety.

Work on `O=C1CN2Cc3c(ccc(Cl)c3Cl)N=C2N1` [anagrelide HCl] yielded a solubility (aqueous buffer) of roughly 1.2 µg/mL, a solubility (pH 0.96, simulated gastric fluid) of 236 µg/mL and a solubility (pH 11.4, aqueous buffer) of 992 µg/mL.
